Reference: patent publication US6887890B2, “Compounds exhibiting thrombopoietin-like activities” (Chugai Seiyaku Kabushiki Kaisha, priority 2000, dated 2005)

Tested on: Mpl-expressing Ba/F3 cell line (human mpl gene)
Assay: Measurement of thrombopoietin (TPO) activity: viable cell count of Mpl-expressing Ba/F3 cell line (Cell Count Reagent SF, absorbance 450 nm)
Type: cell-based
Details: for Concentration: concentration corresponding to the maximum TPO activity value; for TPO activity: maximum TPO activity value, ODt/ODs×100 relative to maximum reaction of human TPO, Mpl-expressing Ba/F3 cells cultured at 37° C. for one day, at the concentration given
Experimental: The TPO activities of the compounds of the invention obtained in the aforementioned examples were measured by the procedure described below, for evaluation of their thrombopoietic effects.
Establishment of Mpl-expressing Ba/F3 Cell Line
The human mpl gene was cloned from cDNAs of the human erythroleukemia cell line HEL by PCR, and was incorporated into pCOS1 to construct an expression vector. The expression vector was transfected into Ba/F3 cells by electroporation method, and an Mpl-expressing Ba/F3 clone was established.
Measurement of Thrombopoietin (TPO) Activity
The cytokine-eliminated Mpl-expressing Ba/F3 line was plated in a 96-well plate at 25,000 cells/well. DMSO solutions containing the compounds obtained in each of the examples were then prepared to different specified concentration ranges, and each solution was added to the Mpl-expressing Ba/F3 cell line (final DMSO concentration: ≦0.1%), and the cell were cultured at 37° C. for one day. Human TPO (by R&D Systems or Genzyme) was used as a positive control.
Each of the cultured Mpl-expressing Ba/F3 cell lines was subjected to absorbance measurement at a wavelength of 450 nm (reference wavelength: 620 nm), corresponding to the viable cell count, using Cell Count Reagent SF (by Nacalai Tesque Inc.). The TPO activity of each compound for the Mpl-expressing Ba/F3 cell line was determined based on the following formula. TPO activity (%)=ODt/ODs×100
ODs: Absorbance at maximum reaction of human TPO (wavelength: 450-620 nm).
ODt: Absorbance of test solution (wavelength: 450-620 nm).
Tables 1 and 2 show the maximum TPO activity values and the corresponding concentrations of each compound, as obtained by the test described above.

`Cl.NCCCC[C@H](NC(=O)Cc1c[nH]c2ccccc12)C(=O)Nc1ccc(C(c2ccc(NC(=O)[C@H](CCCCN)NC(=O)Cc3c[nH]c4ccccc34)cc2)c2ccc(NC(=O)[C@H](CCCCN)NC(=O)Cc3c[nH]c4ccccc34)cc2)cc1` [Example 1, tris[4-[N-α-[2-(1H-indol-3-yl)acetyl]-L-lysyl]aminophenyl]methane hydrochloride] was tested, and the Concentration was 25 µM and the TPO activity was 37.6%.
Work on `COc1ccc2[nH]c(C)c(CC(=O)N[C@@H](CCCCN)C(=O)Nc3ccc(C(c4ccc(NC(=O)[C@H](CCCCN)NC(=O)Cc5c(C)[nH]c6ccc(OC)cc56)cc4)c4ccc(NC(=O)[C@H](CCCCN)NC(=O)Cc5c(C)[nH]c6ccc(OC)cc56)cc4)cc3)c2c1.Cl` [Example 6, tris[4-[N-α-[2-(5-methoxy-2-methyl-1H-indol-3-yl)acetyl]-L-lysyl]aminophenyl]methane hydrochloride] yielded a Concentration of 25 µM and a TPO activity of 17.4%.
Molecule `Cc1[nH]c2ccccc2c1CC(=O)N[C@@H](CCCCN)C(=O)Nc1ccc(C(c2ccc(NC(=O)[C@H](CCCCN)NC(=O)Cc3c(C)[nH]c4ccccc34)cc2)c2ccc(NC(=O)[C@H](CCCCN)NC(=O)Cc3c(C)[nH]c4ccccc34)cc2)cc1.Cl` [Example 7, tris[4-[N-α-[2-(2-methyl-1H-indol-3-yl)acetyl]-L-lysyl]aminophenyl]methane hydrochloride] has a Concentration of 21 µM and a TPO activity of 24.7%.
For `Cl.NCCCC[C@H](NC(=O)Cc1ccsc1)C(=O)Nc1ccc(C(c2ccc(NC(=O)[C@H](CCCCN)NC(=O)Cc3ccsc3)cc2)c2ccc(NC(=O)[C@H](CCCCN)NC(=O)Cc3ccsc3)cc2)cc1` [Example 13, tris[4-[N-α-[2-(thiophen-3-yl)acetyl]-L-lysyl]aminophenyl]methane hydrochloride], the Concentration was 25 µM and the TPO activity was 25.7%.
With `Cl.NCCCC[C@H](NC(=O)c1cccnc1)C(=O)Nc1ccc(C(c2ccc(NC(=O)[C@H](CCCCN)NC(=O)c3cccnc3)cc2)c2ccc(NC(=O)[C@H](CCCCN)NC(=O)c3cccnc3)cc2)cc1` [Example 17, tris[4-[N-α-(3-pyridylcarbonyl)-L-lysyl]aminophenyl]methane hydrochloride] the Concentration was 50 µM and the TPO activity was 16.5%.
For `Cl.NCCCC[C@H](NC(=O)Cc1c[nH]c2ccc(O)cc12)C(=O)Nc1ccc(C(c2ccc(NC(=O)[C@H](CCCCN)NC(=O)Cc3c[nH]c4ccc(O)cc34)cc2)c2ccc(NC(=O)[C@H](CCCCN)NC(=O)Cc3c[nH]c4ccc(O)cc34)cc2)cc1` [Example 18, tris[4-[N-α-[2-(5-hydroxy-1H-indol-3-yl)acetyl]-L-lysyl]aminophenyl]methane hydrochloride], the Concentration was 50 µM and the TPO activity was 46.5%.
Work on `Cl.NCCCC[C@H](NC(=O)Cc1ccc(O)cc1)C(=O)Nc1ccc(C(c2ccc(NC(=O)[C@H](CCCCN)NC(=O)Cc3ccc(O)cc3)cc2)c2ccc(NC(=O)[C@H](CCCCN)NC(=O)Cc3ccc(O)cc3)cc2)cc1` [Example 19, tris[4-[N-α-[2-(4-hydroxyphenyl)acetyl]-L-lysyl]aminophenyl]methane hydrochloride] yielded a Concentration of 50 µM and a TPO activity of 19.1%.
`Cc1[nH]c2ccccc2c1CC(=O)N[C@H](CCCCN)C(=O)Nc1ccc(C(c2ccc(NC(=O)[C@@H](CCCCN)NC(=O)Cc3c(C)[nH]c4ccccc34)cc2)c2ccc(NC(=O)[C@@H](CCCCN)NC(=O)Cc3c(C)[nH]c4ccccc34)cc2)cc1` [Example 21, tris[4-[N-α-[2-(2-methyl-1H-indol-3-yl)acetyl]-D-lysyl]aminophenyl]methane] showed a Concentration of 25 µM and a TPO activity of 60.1%.
For `Cl.NCCCC[C@@H](NC(=O)Cc1ccsc1)C(=O)Nc1ccc(C(c2ccc(NC(=O)[C@@H](CCCCN)NC(=O)Cc3ccsc3)cc2)c2ccc(NC(=O)[C@@H](CCCCN)NC(=O)Cc3ccsc3)cc2)cc1` [Example 23, tris[4-[N-α-[2-(thiophen-3-yl)acetyl]-D-lysyl]aminophenyl]methane hydrochloride], the Concentration was 25 µM and the TPO activity was 48.0%.
Work on `CN(C)CCCC[C@H](NC(=O)Cc1c[nH]c2ccccc12)C(=O)Nc1ccc(C(c2ccc(NC(=O)[C@H](CCCCN(C)C)NC(=O)Cc3c[nH]c4ccccc34)cc2)c2ccc(NC(=O)[C@H](CCCCN(C)C)NC(=O)Cc3c[nH]c4ccccc34)cc2)cc1` [Example 29, tris[4-[N-α-[2-(1H-indol-3-yl)acetyl]-N-εdimethyl-L-lysyl]aminophenyl]methane] yielded a Concentration of 25 µM and a TPO activity of 98.5%.
`Cc1[nH]c2ccccc2c1CC(=O)N[C@@H](CCCCN(C)C)C(=O)Nc1ccc(C(c2ccc(NC(=O)[C@H](CCCCN(C)C)NC(=O)Cc3c(C)[nH]c4ccccc34)cc2)c2ccc(NC(=O)[C@H](CCCCN(C)C)NC(=O)Cc3c(C)[nH]c4ccccc34)cc2)cc1` [Example 30, tris[4-[N-α-[2-(2-methyl-1H-indol-3-yl)acetyl]-N-ε-dimethyl-L-lysyl]aminophenyl]methane] was tested, and the Concentration was 25 µM and the TPO activity was 108%.
`COc1ccc2[nH]c(C)c(CC(=O)N[C@@H](CCCCN(C)C)C(=O)Nc3ccc(C(c4ccc(NC(=O)[C@H](CCCCN(C)C)NC(=O)Cc5c(C)[nH]c6ccc(OC)cc56)cc4)c4ccc(NC(=O)[C@H](CCCCN(C)C)NC(=O)Cc5c(C)[nH]c6ccc(OC)cc56)cc4)cc3)c2c1` [Example 31] gave a Concentration of 25 µM and a TPO activity of 96.4%.
`CN(C)CCCC[C@H](NC(=O)Cc1ccsc1)C(=O)Nc1ccc(C(c2ccc(NC(=O)[C@H](CCCCN(C)C)NC(=O)Cc3ccsc3)cc2)c2ccc(NC(=O)[C@H](CCCCN(C)C)NC(=O)Cc3ccsc3)cc2)cc1` [Example 32, tris[4-[N-α-[2-(thiophen-3-yl)acetyl]-N-ε-dimethyl-L-lysyl]aminophenyl]methane] showed a Concentration of 25 µM and a TPO activity of 87.1%.
`Cl.NCCCSC[C@H](NC(=O)Cc1c[nH]c2ccccc12)C(=O)Nc1ccc(C(c2ccc(NC(=O)[C@H](CSCCCN)NC(=O)Cc3c[nH]c4ccccc34)cc2)c2ccc(NC(=O)[C@H](CSCCCN)NC(=O)Cc3c[nH]c4ccccc34)cc2)cc1` [Example 33, tris[4-[N-[2-(1H-indol-3-yl)acetyl]-S-(3-aminopropyl)-L-cystyl]aminophenyl]methane hydrochloride] gave a Concentration of 50 µM and a TPO activity of 17.4%.
For `Cl.N=C(N)NCCC[C@H](NC(=O)Cc1ccsc1)C(=O)Nc1ccc(C(c2ccc(NC(=O)[C@H](CCCNC(=N)N)NC(=O)Cc3ccsc3)cc2)c2ccc(NC(=O)[C@H](CCCNC(=N)N)NC(=O)Cc3ccsc3)cc2)cc1` (stereo partly drawn) [Example 38, tris[4-[N-α-[2-(thiophen-3-yl)acetyl]-L-arginyl]aminophenyl]methane hydrochloride], the Concentration was 25 µM and the TPO activity was 124%.
In the case of `Cc1[nH]c2ccccc2c1CC(=O)N[C@H](CCCNC(=N)N)C(=O)Nc1ccc(C(c2ccc(NC(=O)[C@@H](CCCNC(=N)N)NC(=O)Cc3c(C)[nH]c4ccccc34)cc2)c2ccc(NC(=O)[C@@H](CCCNC(=N)N)NC(=O)Cc3c(C)[nH]c4ccccc34)cc2)cc1.Cl` (stereo partly drawn) [Example 39, tris[4-[N-α-[2-(2-methyl-1H-indol-3-yl)acetyl]-D-arginyl]aminophenyl]methane hydrochloride], the Concentration is reported as 12.5 µM and the TPO activity is reported as 80.4%.
`Cl.N=C(N)NCCC[C@@H](NC(=O)Cc1ccsc1)C(=O)Nc1ccc(C(c2ccc(NC(=O)[C@@H](CCCNC(=N)N)NC(=O)Cc3ccsc3)cc2)c2ccc(NC(=O)[C@@H](CCCNC(=N)N)NC(=O)Cc3ccsc3)cc2)cc1` (stereo partly drawn) [Example 40, tris[4-[N-α-[2-(thiophen-3-yl)acetyl]-D-arginyl]aminophenyl]methane hydrochloride] was tested, and the Concentration was 12.5 µM and the TPO activity was 59.0%.
With `NCC[C@H](NC(=O)Cc1c[nH]c2ccccc12)C(=O)Nc1ccc(C(c2ccc(NC(=O)[C@H](CCN)NC(=O)Cc3c[nH]c4ccccc34)cc2)c2ccc(NC(=O)[C@H](CCN)NC(=O)Cc3c[nH]c4ccccc34)cc2)cc1.O=C(O)C(F)(F)F` [Example 131, tris[4-[β-aminomethyl-N-[2-(1H-indol-3-yl)acetyl]-L-alanyl]aminophenyl]methane trifluoroacetate] the Concentration was 50 µM and the TPO activity was 88.0%.
With `Cc1[nH]c2ccccc2c1CC(=O)N[C@@H](CCN)C(=O)Nc1ccc(C(c2ccc(NC(=O)[C@H](CCN)NC(=O)Cc3c(C)[nH]c4ccccc34)cc2)c2ccc(NC(=O)[C@H](CCN)NC(=O)Cc3c(C)[nH]c4ccccc34)cc2)cc1.O=C(O)C(F)(F)F` [Example 132, tris[4-[β-aminomethyl-N-[2-(2-methyl-1H-indol-3-yl)acetyl]-L-alanyl]aminophenyl]methane trifluoroacetate] the Concentration was 50 µM and the TPO activity was 22.3%.
`COc1ccc2[nH]c(C)c(CC(=O)N[C@@H](CCN)C(=O)Nc3ccc(C(c4ccc(NC(=O)[C@H](CCN)NC(=O)Cc5c(C)[nH]c6ccc(OC)cc56)cc4)c4ccc(NC(=O)[C@H](CCN)NC(=O)Cc5c(C)[nH]c6ccc(OC)cc56)cc4)cc3)c2c1.O=C(O)C(F)(F)F` [Example 133, tris[4-[β-aminomethyl-N-[2-(5-methoxy-2-methyl-1H-indol-3-yl)acetyl]-L-alanyl]aminophenyl]methane trifluoroacetate] showed a Concentration of 50 µM and a TPO activity of 89.6%.
